Here are results for 1 compound from US20240317865A1, “ANTIBODIES AGAINST INTEGRIN ALPHA 11 BETA 1” (MOMENTA PHARMACEUTICALS, INC., priority 2020, published 2024).

The experiment concerns A549 cell xenografts. Description: Tumor xenograft model. Format: in vivo, C.B-17 SCID mice. The conditions noted are these: docetaxel 10 mg/kg every 4 days, 6 doses. As for the experimental part:
Fifty-six female C.B-17 SCID mice were inoculated with A549 cells (5×10^6 cells/mouse) subcutaneously in the flank. Once tumor volume reached ˜100 mm^3, animals were randomized amongst 7 groups of 8 mice each. Mice were then treated intraperitonealy every 3 days for a total of 7 doses with isotype controls or novel mAbs 79E3E3, 16E10 and 9G04 (2 and 20 mg/kg) or with docetaxel at 10 mg/kg every 4 days for a total of 6 doses. Tumor volumes and body weights were recorded twice a week with a gap of 2-3 days in between two measurements until any of the following conditions defined were observed: loss of 20% or more body weight; tumors that inhibit normal physiological function such as eating, drinking, and mobility; ulcerated tumors; tumor size greater than 2000 mm^3 and clinical observations of prostration, paralysis, seizures and hemorrhages.
In this example, studies were performed to determine if inhibition of α11β1 function with mAb results in xenograft growth inhibition. As shown in FIG. 16 and Table 4, blocking α11β1 on mouse CAFs impeded xenograft growth in SCID mice.

Turning to `CC(=O)O[C@@]12CO[C@@H]1C[C@H](O)[C@@]1(C)C(=O)[C@H](O)C3=C(C)[C@@H](OC(=O)[C@H](O)[C@@H](NC(=O)OC(C)(C)C)c4ccccc4)C[C@@](O)([C@@H](OC(=O)c4ccccc4)[C@H]21)C3(C)C` [Docetaxel, docetaxel, reference compound], the “Days to Volume Doubling (ave, 95% CI)” value is listed as 11.0 (10.0, 12.0) Days.
